Source: US8383597B2, “G proteins in tumor growth and angiogenesis” (Cornell Research Foundation, Inc., priority 2006, dated 2013)
“Also recorded” adds a separate entry of the source. d = 2'-deoxy (DNA); r = 2'-OH (RNA)

Experiments:
mouse Gα13 [1] = assay: Western blot of Gα13 protein level in MEF cells after RNA interference; format: cell-based; details: wild-type MEF cells, siRNA transfection, Western blot (FIG. 3C)
Experimental: (§1) RNA Interference: RNA interference was performed with Qiagen's 2-For-Silencing siRNA Duplexes. Cells were plated in 6-well plates the day before transfection. 2.5 μg siRNA were diluted in 100 μL buffer EC-R (Qiagen). 7.5 μL RNAiFect transfection reagent (Qiagen) were added to form complexes. After incubation for 15 minutes at room temperature, the complexes were added to the cells. Two days later, the cells were again transfected with the same amount of siRNA. Cells were assayed after three more days' incubation. The sequences for Gα13 siRNA oligonucleotides were r(GUA CGA CUU UGA AAU UAA A)dTdT (SEQ ID NO: 6) for the sense strand and r(UUU AAU UUC AAA GUC GUA C)dTdC (SEQ ID NO: 7) for the antisense strand. The sequences for the second pair of oligonucleotides used in the interference assay (data not shown) were r(GGG UGA GUC UGU AAA GUA U)dTdT (SEQ ID NO: 8) for the sense strand and r(AUA CUU UAC AGA CUC ACC C)dAdG (SEQ ID NO: 9) for the antisense strand. The control siRNA oligonucleotides were supplied by Qiagen.

Gα12 [2] = assay: Western blot of Gα12 protein level in MEF cells after RNA interference; format: cell-based, mouse; details: siRNA transfected MEF cells, Western blot (FIG. 3C)
Experimental: as §1

tubulin [3] = assay: Western blot of tubulin protein level in MEF cells after RNA interference; format: cell-based, mouse; details: siRNA transfected MEF cells, Western blot (FIG. 3C)
Experimental: as §1

MEF cells [4] = assay: Chamber cell migration assay, siRNA-treated MEF cells; format: cell-based, mouse
Experimental: (§2) Chamber Cell Migration Assay: Cell migration was assayed in Boyden chambers [8.0 μm pore size polyethylene terephthalate membrane, FALCON cell culture insert (Becton-Dickinson)] (Shan et al., Proc Natl Acad Sci USA 102: 3772-3776 (2005); Yang and Huang, J Biol Chem 280: 27130-27137 (2005)). Cells were first trypsinized and counted. Then 5-10×10^4 cells in serum free medium (300 μL) were added to the upper chamber, and 500 μL of appropriate medium with 10% FBS or 20 ng/mL PDGF were added to the lower chamber. Transwells were incubated for 4-6 hours at 37° C. Cells on the inside of the transwell inserts were removed with a cotton swab, and cells on the underside of the insert were fixed and stained. Photographs of three random fields were taken, and the number of cells counted to determine the average number of cells that had transmigrated.
(§3) RNA Interference: RNA interference was performed with Qiagen's 2-For-Silencing siRNA Duplexes. Cells were plated in 6-well plates the day before transfection. 2.5 μg siRNA were diluted in 100 μL buffer EC-R (Qiagen). 7.5 μL RNAiFect transfection reagent (Qiagen) were added to form complexes. After incubation for 15 minutes at room temperature, the complexes were added to the cells. Two days later, the cells were again transfected with the same amount of siRNA. Cells were assayed after three more days' incubation. […]

MEF cells [5] = assay: Wound healing assay, siRNA-treated MEF cells; format: cell-based, mouse; details: PDGF stimulation (FIG. 3E)
Experimental: Wound Healing Assay: Wild type and Gα12^−/−Gα13^−/− MEF cells isolated from E8.0 Gα12^−/−Gα13^−/− embryos (Gu et al., Proc Natl Acad Sci USA 99: 9352-9357 (2002)) in Dulbecco's Modified Eagle Medium (DMEM) (Invitrogen) containing 10% FBS were seeded into wells of 24-multiwell plates (Becton-Dickinson) (Shan et al., Proc Natl Acad Sci USA 102: 3772-3776 (2005); Yang and Huang, J Biol Chem 280: 27130-27137 (2005)). After they grew to confluency, wounds were made with sterile pipet tips. Cells were washed with Phosphate Buffered Saline (PBS) and refreshed with medium containing 10% fetal bovine serum (FBS) or 20 ng/mL platelet-derived growth factor (PDGF-BB). After overnight incubation at 37° C., cells were fixed and photographed. MEF cells were transfected with Lipofectamine-2000 (transfection efficiency was 10 to 30%) (Invitrogen).
as §3

mouse Gα13 [6] = assay: Western blot of Gα13 protein level in SVEC4-10 endothelial cells after RNA interference; format: cell-based; details: SVEC4-10 cells, Western blot (FIG. 9A)
Experimental: as §1

Gα12 [7] = assay: Western blot of Gα12 protein level in SVEC4-10 endothelial cells after RNA interference; format: cell-based, mouse; details: SVEC4-10 cells, Western blot (FIG. 9A)
Experimental: as §1

tubulin [8] = assay: Western blot of tubulin protein level in SVEC4-10 endothelial cells after RNA interference; format: cell-based, mouse; details: SVEC4-10 cells, Western blot (FIG. 9A)
Experimental: as §1

[9] = tested on: mouse endothelial SVEC4-10 cells; assay: Chamber assay of VEGF-induced migration of SVEC4-10 endothelial cells; format: cell-based; details: chamber assay (FIG. 9B)
Experimental: as §2, with “Then 5-10×10^4 cells in serum free medium (300 μL) were added to the upper chamber, and 500 μL of appropriate medium with 10% FBS or 20 ng/mL PDGF were added to the lower chamber.” left out
as §1, with “The sequences for the second pair of oligonucleotides used in the interference assay (data not shown) were r(GGG UGA GUC UGU AAA GUA U)dTdT (SEQ ID NO: 8) for the sense strand and r(AUA CUU UAC AGA CUC ACC C)dAdG (SEQ ID NO: 9) for the antisense strand. The control siRNA oligonucleotides were supplied by Qiagen.” left out

r(GUA CGA CUU UGA AAU UAA A)dTdT (sense GUACGACUUUGAAAUUAAATT; antisense UUUAAUUUCAAAGUCGUACTC; siRNA; sugars from the 5' end r19 d2, backbone not given here) [Gα13 siRNA, siRNA duplex against mouse Gα13]
level of endogenous mouse Gα13 protein (mouse Gα13 [1]): significantly reduced
protein level of Gα12 (Gα12 [2]): not changed
protein level of tubulin (tubulin [3]): not changed
cell migratory response to PDGF stimulation, chamber assay (MEF cells [4]; PDGF stimulation (FIG. 3D)): defective cell migratory response
migration of cells without PDGF, compared with control RNAi (MEF cells [4]; without PDGF (or other stimuli), data not shown): not significantly different
cell migratory response to PDGF stimulation, wound-healing assay (MEF cells [5]): defective cell migratory response; also recorded: reduced
endogenous mouse Gα13 protein level (mouse Gα13 [6]): reduced
protein level of Gα12 (Gα12 [7]): no effect
protein level of tubulin (tubulin [8]): no effect
VEGF-induced endothelial cell migration [9]: reduced
